Measurements as given in BindingDB's records for doi:10.1016/j.bmcl.2011.10.052 (Rhône-Poulenc Rorer, 2011).

These compounds were tested against Dihydroorotate dehydrogenase (quinone), mitochondrial (Homo sapiens, UniProt Q02127) (assay: Inhibition of human dihydroorotate dehydrogenase).
Chain of Dihydroorotate dehydrogenase (quinone), mitochondrial (Q02127 whole entry): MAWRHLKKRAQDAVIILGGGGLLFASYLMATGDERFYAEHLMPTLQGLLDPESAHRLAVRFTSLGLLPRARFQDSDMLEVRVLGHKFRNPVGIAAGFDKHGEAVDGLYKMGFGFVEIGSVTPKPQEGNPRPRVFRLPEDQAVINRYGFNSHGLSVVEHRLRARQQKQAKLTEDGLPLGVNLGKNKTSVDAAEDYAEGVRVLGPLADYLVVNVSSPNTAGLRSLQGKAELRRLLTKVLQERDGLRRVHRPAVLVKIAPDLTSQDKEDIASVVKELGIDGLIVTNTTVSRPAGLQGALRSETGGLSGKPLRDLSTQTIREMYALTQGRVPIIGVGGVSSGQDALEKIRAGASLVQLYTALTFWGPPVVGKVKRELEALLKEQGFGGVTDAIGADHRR

SMILES | IC50 [nM]
CCC(=O)C(C#N)C(=O)Nc1ccc(-c2ccc(F)cc2OC)c(C(=O)OC)c1 (configuration not stated) | 66
CCC(=O)C(C#N)C(=O)Nc1ccc(-c2ccc3c(c2)OCCO3)c(C(=O)OC)c1 (configuration not stated) | 66
CCC(=O)C(C#N)C(=O)Nc1ccc(OS(=O)(=O)C(F)(F)F)cc1 (configuration not stated) | 150
CCC(=O)C(C#N)C(=O)Nc1ccc(-c2ccc(F)nc2)c(C(=O)OC)c1 (configuration not stated) | 150
CCC(=O)C(C#N)C(=O)Nc1ccc(-c2ccc(F)cc2F)c(C(=O)OC)c1 (configuration not stated) | 31

More lines, now with the values ahead:

IC50 [nM] | SMILES
31 | CCC(=O)C(C#N)C(=O)Nc1ccc(-c2cccc(Cl)c2)c(C(=O)OC)c1 (configuration not stated)
31 | CCC(=O)C(C#N)C(=O)Nc1ccc(-c2cccc(OC3CCC3)c2)c(C(=O)OC)c1 (configuration not stated)
